Molecular target: T1, bradykinin B2 receptor (B2R) (Homo sapiens, UniProt P30411)
T1 construct: gene BDKRB2; B2R transfected in HEK293 cells
T1 sequence (P30411 1-391): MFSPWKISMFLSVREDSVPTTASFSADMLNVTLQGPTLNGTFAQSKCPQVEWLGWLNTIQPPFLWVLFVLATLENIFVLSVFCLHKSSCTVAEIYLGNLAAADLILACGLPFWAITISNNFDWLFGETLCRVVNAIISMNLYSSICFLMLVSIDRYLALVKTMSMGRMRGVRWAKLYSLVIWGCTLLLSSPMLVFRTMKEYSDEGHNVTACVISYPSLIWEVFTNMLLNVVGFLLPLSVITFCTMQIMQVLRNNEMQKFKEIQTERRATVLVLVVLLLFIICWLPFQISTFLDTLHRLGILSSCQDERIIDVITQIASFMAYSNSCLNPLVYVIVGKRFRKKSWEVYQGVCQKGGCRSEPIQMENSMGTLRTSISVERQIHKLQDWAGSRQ
Assay: B2R-dependent ERK phosphorylation in transfected HEK293, blocked by the B2R antagonist HOE-140
Format: cell-based

CC/C=C\C/C=C\C/C=C\C/C=C\C/C=C\C/C=C\CCC(=O)O [DHA, docosahexaenoic acid]
B2R-dependent ERK phosphorylation in transfected HEK293, blocked by the B2R anta: EPA or DHA dependent ERK phosphorylation was inhibited by the selective B2R antagonist.
